Experimental data from patent US5310938A, “Substituted arylpyrrole compounds” (American Cyanamid Company, priority 1993, dated 1994).

System: Caenorhabditis elegans
Test: Nematicidal activity against C. elegans (motility rating)
Type: in vivo, C. elegans (Bristol strain)
Set-up: key: 9: complete kill; 8: no motility; 7: markedly reduced motility in approximately 95% of worms; 6: reduced motility; 5: slightly reduced motility; 0: normal motility, same as controls
Details: read at 4 and 24 hours post-immersion
Experimental: Cultures of C. elegans (Bristol strain from J. Lewis) are maintained on E. coli lawns on NG Agar Plates at 20° C. New cultures are established weekly.
Nematodes for testing are washed from 4-5 day old cultures using Fresh Ascaris Ringers Solution (FARS). The worms are further washed with FARS,-containing gentamycin, to reduce bacterial contamination and centrifuged to separate worms from wash solution. This procedure is repeated three times. The washed worms are then added to C. brigassae Maintenance Medium (CbMM), from GIBCOa to which is added gentamycin (600 units/ml) and mycostatin (0.5 mg/ml).
Compounds are dissolved in acetone and made up to volume with equal parts of water. The final test concentration of each compound in the mixture is 150 ppm. The test material is micropipetted (25 ul) into a single well of a 96-well sterile tissue culture plate (COSTAR)^b and the solvent allowed to evaporate. These "treated" plates are used immediately or stored in a refrigerator without apparent adverse effects on the compounds.
A freshly prepared volume ([…]) of C. elegans in CbMM is micropipetted into each treated well and several control wells per plate. Culture plates are incubated at 20° C.
Observations for efficacy are made under a dissecting microscope at 4 and 24 hours post-immersion. Immediately prior to reading the plate, it is gently tapped to stimulate the movement of the worms. Activity is judged based on the drug effects on motility of the adults and larvae. […] Other factors indicating activity are easily noted such as death, rigor mortis, contraction, coiling, paralysis, abnormal twitching, reduced worm population in 48 hours and other deviation from normal behavior.
Day 0 Inoculate E. Coli-NG Agar Dish With 30-40
Day 4 Harvest New C. Elegans Population
Add C. Elegans (25-100 µL) To "Medicated"
Observe for Activity at 4 hours Post-
Day 5 Observe For Activity

## 4,5-Dichloro-1-(hydromethyl)-2-(α,α,α-trifluoro-P-tolyl)
  Rating Against C. Elegans 150 ppm: 9

## C=CCn1c(Cl)c(Cl)c(C#N)c1-c1ccc(Cl)c(Cl)c1 [1-Alkyl-4,5-dichloro-2-(3,4-dichlorophenyl)pyrrole-3-carbonitrile]
  Rating Against C. Elegans 150 ppm: 9

## N#Cc1c(Br)c(C#N)n(Cc2ccccc2)c1-c1ccc(Cl)cc1 [1-Benzyl-3-bromo-5-(P-chlorophenyl)pyrrole-2,4-dicarbonitrile]
  Rating Against C. Elegans 150 ppm: 9

## N#Cc1c(Br)c(Br)n(Cc2ccccc2)c1-c1ccc(C(F)(F)F)cc1 [1-Benzyl-4,5-dibromo-2-(α,α,α-trifluoro-p-tolyl)pyrrole-3-carbonitrile]
  Rating Against C. Elegans 150 ppm: 9

## O=[N+]([O-])c1c(-c2ccc(C(F)(F)F)cc2)[nH]c(Cl)c1Cl [2,3-Dichloro-4-nitro-5-(α,α,α-Trifluoro-p-tolylpyrrole]
  Rating Against C. Elegans 150 ppm: 9

## O=[N+]([O-])c1c(-c2ccc(Cl)c(Cl)c2)[nH]c(Cl)c1Cl [2,3-Dichloro-5-(3,4-dichlorophenyl)-4-nitropyrrole]
  Rating Against C. Elegans 150 ppm: 9

## N#Cc1c(Br)[nH]c(-c2ccc(C(F)(F)F)cc2)c1Br [2,4-Dibromo-5-(α,α,α-trifluoro-P-tolyl)pyrrole-3-carbonitrile]
  Rating Against C. Elegans 150 ppm: 9

## O=[N+]([O-])c1c(Cl)[nH]c(Cl)c1-c1ccc(Cl)c(Cl)c1 [2,5-Dichloro-3-(3,4-dichlorophenyl)-4-nitropyrrole]
  Rating Against C. Elegans 150 ppm: 9

## O=[N+]([O-])c1cc([N+](=O)[O-])c(-c2ccc(Br)cc2)[nH]1 [2-(P-bromophenyl)-3,5-dimitropyrrole]
  Rating Against C. Elegans 150 ppm: 9

## O=[N+]([O-])c1c(-c2ccc(Br)cc2)[nH]c(Cl)c1Cl [2-(P-bromophenyl)-4,5-dichloro-3-nitropyrrole]
  Rating Against C. Elegans 150 ppm: 9

## N#Cc1c(-c2ccc(Cl)cc2)[nH]c(C(F)(F)F)c1C(F)(F)F [2-(P-chlorophenyl)-4,5-bis(trifluoromethyl)pyrrole-3-carbonitrile]
  Rating Against C. Elegans 150 ppm: 9

## N#Cc1cc([N+](=O)[O-])[nH]c1-c1ccc(Cl)cc1 [2-(p-chlorophenyl)-5-nitropyrrole-3-carbonitrile]
  Rating Against C. Elegans 150 ppm: 9

## N#Cc1c(Br)[nH]c(C(F)(F)F)c1-c1ccc(Cl)cc1 [2-Bromo-4-(P-chlorophenyl)-5-(trifluoromethyl)pyrrole-3-carbonitrile]
  Rating Against C. Elegans 150 ppm: 9

## N#Cc1c(Br)[nH]c(C(F)(F)F)c1-c1ccccc1 [2-Bromo-4-phenyl-5-(trifluoromethyl)pyrrole-3-carbonitrile]
  Rating Against C. Elegans 150 ppm: 9

## N#Cc1[nH]c(-c2ccc(Cl)c(Cl)c2)c(Br)c1Br [3,4-dibromo-5-(3,4-dichlorophenyl)pyrrole-2-carbonitrile]
  Rating Against C. Elegans 150 ppm: 9

## N#Cc1[nH]c(Br)c(-c2ccc(Cl)cc2)c1Br [3,5-Dibromo-4-(p-chlorophenyl)pyrrole-2-carbonitrile]
  Rating Against C. Elegans 150 ppm: 9

## FC(F)(F)c1[nH]ccc1-c1ccc(Cl)cc1 [3-(P-chlorophenyl)-2-(trifluoromethyl)pyrrole]
  Rating Against C. Elegans 150 ppm: 9

## O=[N+]([O-])c1c[nH]cc1-c1ccc(Cl)cc1 [3-(P-chlorophenyl)-4-nitro-pyrrole]
  Rating Against C. Elegans 150 ppm: 9

## N#Cc1[nH]ccc1-c1ccc(Cl)cc1 [3-(P-chlorophenyl)pyrrole-2-carbonitrile, 3-(p-chlorophenyl)-pyrrole-2-carbonitrile]
  Rating Against C. Elegans 150 ppm: 9

## N#Cc1[nH]c(-c2ccc(Cl)c(Cl)c2)c([N+](=O)[O-])c1Br [3-Bromo-5-(3,4-dichlorophenyl)-4-nitropyrrole-2-carbonitrile]
  Rating Against C. Elegans 150 ppm: 9

## N#CCn1c(-c2ccc(Cl)cc2)c(C#N)c(Br)c1C(F)(F)F [3-Bromo-5-(P-chlorophenyl)-4-cyano-2-(trifluoromethyl)-pyrrole-1-acetonitrile]
  Rating Against C. Elegans 150 ppm: 9

## N#Cc1[nH]c(-c2ccc(OC(F)(F)F)cc2)c(C#N)c1Br [3-Bromo-5-[P-(trifluoromethoxy)phenyl]-pyrrole-2-4-dicarbonitrile]
  Rating Against C. Elegans 150 ppm: 9

## O=[N+]([O-])c1c[nH]cc1-c1ccccc1 [3-Nitro-4-phenylpyrrole]
  Rating Against C. Elegans 150 ppm: 9

## N#Cc1c(-c2ccccc2Cl)[nH]c(Br)c1Br [4,5-Dibromo-2-(0-chlorophenyl)-pyrrole-3-carbonitrile]
  Rating Against C. Elegans 150 ppm: 9

## N#Cc1ccc(-c2[nH]c(Br)c(Br)c2C#N)cc1 [4,5-Dibromo-2-(P-cyanophenyl)-pyrrole-3-carbonitrile]
  Rating Against C. Elegans 150 ppm: 9

## N#Cc1c(-c2ccc([N+](=O)[O-])cc2)[nH]c(Br)c1Br [4,5-Dibromo-2-(P-nitrophenyl)-pyrrole-3-carbonitrile]
  Rating Against C. Elegans 150 ppm: 9

## N#Cc1c(-c2ccc(C(F)(F)F)cc2)[nH]c(Br)c1Br [4,5-Dibromo-2-(α,α,α-trifluoro-p-tolyl)pyrrole-3-carbonitrile]
  Rating Against C. Elegans 150 ppm: 9

## CS(=O)(=O)c1ccc(-c2[nH]c(Br)c(Br)c2C#N)cc1 [4,5-Dibromo-2-[P-(methylsulfonyl)phenyl]-pyrrole-3-carbonitrile]
  Rating Against C. Elegans 150 ppm: 9

## COCCn1c(Cl)c(Cl)c(C#N)c1-c1ccc(C(F)(F)F)cc1 [4,5-Dichloro-1-(methoxyethyl)-2-(α,α,α-trifluoro-P-tolyl)pyrrole-3-carbonitrile]
  Rating Against C. Elegans 150 ppm: 9

## CN(C)CCn1c(Cl)c(Cl)c(C#N)c1-c1ccc(Cl)c(Cl)c1 [4,5-Dichloro-2-(3,4-dichlorophenyl)-1-[2-(dimethylamino)ethyl]pyrrole-3-carbonitrile]
  Rating Against C. Elegans 150 ppm: 9

## CSCCn1c(Cl)c(Cl)c(C#N)c1-c1ccc(Cl)c(Cl)c1 [4,5-Dichloro-2-(3,4-dichlorophenyl)-1[2-(methylthio)ethyl]pyrrole-3-carbonitrile]
  Rating Against C. Elegans 150 ppm: 9

## N#Cc1ccc(-c2[nH]c(Cl)c(Cl)c2C#N)cc1 [4,5-Dichloro-2-(P-cyanophenyl)-pyrrole-3-carbonitrile]
  Rating Against C. Elegans 150 ppm: 9

## N#Cc1c(-c2ccc([N+](=O)[O-])cc2)[nH]c(Cl)c1Cl [4,5-Dichloro-2-(P-nitrophenyl)-pyrrole-3-carbonitrile]
  Rating Against C. Elegans 150 ppm: 9

## N#Cc1c(-c2ccc(C(F)(F)F)cc2)[nH]c(Cl)c1Cl [4,5-Dichloro-2-(α,α,α-trifluoro-P-tolylpyrrole-3-carbonitrile]
  Rating Against C. Elegans 150 ppm: 9

## CCOCn1c(-c2ccc(C(F)(F)F)cc2)c(C#N)c(Br)c1C(F)(F)F [4-Bromo-1-(ethoxymethyl)-5-(trifluoromethyl)-2-(α,α,α-trifluoro-P-tolyl)-pyrrole-3-carbonitrile]
  Rating Against C. Elegans 150 ppm: 9

## CCOCn1c(-c2ccc(Cl)cc2Cl)c(C#N)c(Br)c1C(F)(F)F [4-Bromo-2-(2,4-Dichlorophenyl)-1-(ethoxymethyl)-5-(trifluoromethyl)pyrrole-3-carbonitrile]
  Rating Against C. Elegans 150 ppm: 9
